“And” between values parts separate entries of the source, which are not always exact repeats. Equal entries are not always repeated. Non-standard residues stand in square brackets, D forms with d. Residues, ends and D or L forms follow the SMILES beside them. pGlu = O=C1CC[C@@H](C(=O)O)N1
What was measured:
[1] = test system: A. aegypti ACP receptor (AedaeACPR); test: Calcium bioluminescence (aequorin) reporter assay of heterologously expressed ACPR; assay type: cell-based, Aedes aegypti; conditions: for Fold-reduction in activity relative to AedaeACP: ACPR in CHO-K1 aequorin cells, relative to native Aedae-ACP; for EC50: CHO-K1 cells stably expressing aequorin, transiently transfected with ACPR and murine Gα15 (pBudCE4.1), luminescence 20 s, 3 to 4 independent biological replicates, ND = no determined EC50 due to minimal or no detectable activity up to 10 μM; for Activity on ACPR at the highest tested dose, in words: 10 μM, Figure 2, ANOVA and Tukey post-test
Excerpt: Therefore, to improve the bioluminescent signal linked to calcium mobilization following receptor activation, which was required in order to provide greater signal to noise ratio when testing ACP analogs with substitutions leading to intermediate levels of activation of the ACPR, we created a new mammalian expression construct using the dual promoter vector, pBudCE4.1. Specifically, we utilized a cloning strategy as reported previously ([41]) whereby the ACPR was inserted into the multiple cloning site (MCS) downstream of the CMV promoter in pBudCE4.1 using the sense primer SalI-KozakACPR, 5′-[…]-3′ and anti-sense primer XbaI-ACPR, 5′-[…]-3′, which directionally inserted the ACPR within the MCS downstream of the CMV promoter. Secondly, the murine homolog (Gα15) of the human promiscuous G protein, Gα16, which indiscriminately couples a wide variety of GPCRs to calcium signaling ([42]) was inserted into the MCS downstream of the EF1-α promoter in pBudCE4.1 using the sense primer NotI-Gα15, 5′-[…]-3′ and anti-sense primer BglII-Gα15, 5′-[…]-3′, which directionally inserted the murine Gα15 within the MCS downstream of the EF1-α promoter.
(§1) Functional activation of the AedaeACPR and AedaeAKHR-IA receptors was carried out following a previously described mammalian cell culture system involving a Chinese hamster ovary (CHO)-K1 cell line stably expressing aequorin ([43]). Cells were grown in DMEM:F12 media containing 10% heat-inactivated fetal bovine serum (Wisent, St. Bruno, QC), 200 μg/mL Geneticin, 1x antimycotic-antibiotic to approximately 90% confluency, and were transiently transfected using either Lipofectamine LTX with Plus Reagent or Lipofectamine 3000 transfection systems (Invitrogen, Burlington, ON) following manufacturer recommended DNA to transfection reagent ratios. Cells were detached from the culture flasks at 48 h post-transfection using 5 mM EDTA in Dulbecco's PBS. Cells were then prepared for the receptor functional assay following a procedure described previously ([27]). Stocks of peptide analogs of ACP and AKH were used for preparation of serial dilutions all of which were prepared in assay media (0.1% BSA in DMEM:F12) and loaded in quadruplicates into 96-well white luminescence plates (Greiner Bio-One, Germany). Cells were loaded with an automatic injector into each well of the plate containing different peptide analogs at various concentrations as well as negative control (assay media alone) and positive control wells (50 μM ATP). Immediately after injection of the cells, luminescence was measured for 20 s using a Synergy 2 Multi-Mode Microplate Reader (BioTek, Winooski, VT, USA). Calculations, including determination of EC50 values, were conducted in GraphPad Prism 7.02 (GraphPad Software, San Diego, USA) from dose-response curves from 3 to 4 independent biological replicates.

[2] = biological target: A. aegypti AKHR-IA receptor (AKHR-IA) (Aedes aegypti, UniProt A0A2P1A8S4); test: Calcium bioluminescence (aequorin) reporter assay of heterologously expressed AKHR-IA; assay type: cell-based; conditions: for Fold-reduction in activity relative to Aedae-AKH: AKHR-IA in CHO-K1 aequorin cells, relative to native Aedae-AKH; for EC50: CHO-K1 cells stably expressing aequorin, transiently transfected with AKHR-IA (pcDNA3.1+), luminescence 20 s, 3 to 4 independent biological replicates, ND = no determined EC50 due to minimal or no detectable activity up to 10 μM
Sequence of A. aegypti AKHR-IA receptor (AKHR-IA) (A0A2P1A8S4 1-410): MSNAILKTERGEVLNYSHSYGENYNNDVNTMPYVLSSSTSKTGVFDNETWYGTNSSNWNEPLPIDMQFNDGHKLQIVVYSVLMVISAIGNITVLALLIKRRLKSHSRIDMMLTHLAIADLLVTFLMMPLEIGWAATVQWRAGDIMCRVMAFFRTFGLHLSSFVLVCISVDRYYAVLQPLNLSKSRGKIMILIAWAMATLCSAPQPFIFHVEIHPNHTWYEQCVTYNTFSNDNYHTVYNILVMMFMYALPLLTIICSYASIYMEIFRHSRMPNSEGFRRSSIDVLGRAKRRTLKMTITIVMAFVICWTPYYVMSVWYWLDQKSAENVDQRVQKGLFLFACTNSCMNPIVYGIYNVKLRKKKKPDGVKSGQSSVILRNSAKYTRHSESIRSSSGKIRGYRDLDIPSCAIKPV
Method: For each construct, an overnight liquid culture of clonal recombinant bacteria containing the appropriate plasmid construct was grown in antibiotic-containing LB media and used to isolate midiprep DNA using the PureLink Midiprep kit (Life Technologies, Burlington, ON). Midiprep samples were then quantified and sent for sequencing as described previously ([26], [27]).
as §1

Molecule | Fold-reduction in activity relative to AedaeACP [1] | EC50 [1] [nM] | further results
CC(C)[C@H](NC(=O)[C@@H]1CCC(=O)N1)C(=O)N[C@H](C(=O)N[C@@H](Cc1ccccc1)C(=O)N[C@@H](CO)C(=O)N[C@@H](CCCNC(=N)N)C(=O)N[C@@H](CC(=O)O)C(=O)N[C@@H](Cc1c[nH]c2ccccc12)C(N)=O)[C@@H](C)O [Aedae-ACP (1-8)] ([pGlu]VTFSRDW-NH2) | 410.1 fold | 2160 | 
CC(C)[C@H](NC(=O)[C@@H]1CCC(=O)N1)C(=O)N[C@H](C(=O)N[C@@H](Cc1ccccc1)C(=O)N[C@@H](CO)C(=O)N[C@@H](CCCNC(=N)N)C(=O)N[C@@H](CC(=O)O)C(=O)N[C@@H](Cc1c[nH]c2ccccc12)C(=O)N[C@@H](CC(N)=O)C(N)=O)[C@@H](C)O [Aedae-ACP (1-9)] ([pGlu]VTFSRDWN-NH2) | 434.2 fold | 4150 | 
CC(C)[C@H](NC(=O)[C@@H]1CCC(=O)N1)C(=O)N[C@H](C(=O)N[C@@H](Cc1ccccc1)C(=O)N[C@@H](CO)C(=O)N[C@@H](CCCNC(=N)N)C(=O)N[C@@H](CC(=O)O)C(=O)N[C@@H](Cc1c[nH]c2ccccc12)C(=O)N[C@@H](CC(N)=O)C(=O)N[C@@H](C)C(=O)NCC(N)=O)[C@@H](C)O [Aedae-ACP (+G)] ([pGlu]VTFSRDWNAG-NH2) | 5.6 fold | 111 | 
C[C@H](NC(=O)[C@H](CC(N)=O)NC(=O)[C@H](Cc1c[nH]c2ccccc12)NC(=O)[C@H](CC(=O)O)NC(=O)[C@H](CCCNC(=N)N)NC(=O)[C@H](CO)NC(=O)[C@H](Cc1ccccc1)NC(=O)[C@@H](NC(=O)[C@H](C)NC(=O)[C@@H]1CCC(=O)N1)[C@@H](C)O)C(N)=O [Aedae-ACP (A2)] ([pGlu]ATFSRDWNA-NH2) |  | 705 | 
CC(C)[C@H](NC(=O)[C@@H]1CCC(=O)N1)C(=O)N[C@H](C(=O)N[C@@H](Cc1ccccc1)C(=O)N[C@@H](C)C(=O)N[C@@H](CCCNC(=N)N)C(=O)N[C@@H](CC(=O)O)C(=O)N[C@@H](Cc1c[nH]c2ccccc12)C(=O)N[C@@H](CC(N)=O)C(=O)N[C@@H](C)C(N)=O)[C@@H](C)O [Aedae-ACP (A5)] ([pGlu]VTFARDWNA-NH2) | 44.9 fold | 1040 | 
CC(C)[C@H](NC(=O)[C@@H]1CCC(=O)N1)C(=O)N[C@H](C(=O)N[C@@H](Cc1ccccc1)C(=O)N[C@@H](CO)C(=O)N[C@@H](C)C(=O)N[C@@H](CC(=O)O)C(=O)N[C@@H](Cc1c[nH]c2ccccc12)C(=O)N[C@@H](CC(N)=O)C(=O)N[C@@H](C)C(N)=O)[C@@H](C)O [Aedae-ACP (A6)] ([pGlu]VTFSADWNA-NH2) | 23.3 fold | 687 | 
CC(C)[C@H](NC(=O)[C@@H]1CCC(=O)N1)C(=O)N[C@H](C(=O)N[C@@H](Cc1ccccc1)C(=O)N[C@@H](CO)C(=O)N[C@@H](CCCNC(=N)N)C(=O)N[C@@H](C)C(=O)N[C@@H](Cc1c[nH]c2ccccc12)C(=O)N[C@@H](CC(N)=O)C(=O)N[C@@H](C)C(N)=O)[C@@H](C)O [Aedae-ACP (A7)] ([pGlu]VTFSRAWNA-NH2) | 15.9 fold | 386 | 
CC(C)[C@H](NC(=O)[C@@H]1CCC(=O)N1)C(=O)N[C@H](C(=O)N[C@@H](Cc1ccccc1)C(=O)N[C@@H](CO)C(=O)N[C@@H](CCCNC(=N)N)C(=O)N[C@@H](CC(=O)O)C(=O)N[C@@H](Cc1c[nH]c2ccccc12)C(=O)N[C@@H](C)C(=O)N[C@@H](C)C(N)=O)[C@@H](C)O [Aedae-ACP (A9)] ([pGlu]VTFSRDWAA-NH2) | 0.2 fold | 4.96 | 
CC(C)C[C@H](NC(=O)[C@@H]1CCC(=O)N1)C(=O)N[C@@H](CC(N)=O)C(=O)N[C@@H](Cc1ccccc1)C(=O)N[C@H](C(=O)N1CCC[C@H]1C(=O)N[C@@H](CO)C(=O)N[C@@H](Cc1c[nH]c2ccccc12)C(N)=O)[C@@H](C)O [Erysi-AKH] ([pGlu]LNFTPSW-NH2) |  |  | Fold-reduction in activity relative to Aedae-AKH [2]: 310 fold and 309.9 fold; EC50 [2]: 669 nM
CC[C@H](C)[C@H](NC(=O)[C@@H]1CCC(=O)N1)C(=O)N[C@H](C(=O)N[C@@H](Cc1ccccc1)C(=O)N[C@@H](CO)C(=O)N[C@@H](CCCNC(=N)N)C(=O)N[C@@H](CC(=O)O)C(=O)N[C@@H](Cc1c[nH]c2ccccc12)C(=O)N[C@@H](CC(N)=O)C(=O)N[C@@H](C)C(N)=O)[C@@H](C)O [Grybi-ACP] ([pGlu]ITFSRDWNA-NH2) | 13.6 fold | 326 | Activity on ACPR at the highest tested dose, in words [1]: failed to reach full ACPR activation
CC(C)[C@H](NC(=O)[C@@H]1CCC(=O)N1)C(=O)N[C@@H](CC(N)=O)C(=O)N[C@@H](Cc1ccccc1)C(=O)N[C@@H](CO)C(=O)N[C@H](C(=O)NCC(=O)N[C@@H](Cc1c[nH]c2ccccc12)C(N)=O)[C@@H](C)O [Grybi-AKH] ([pGlu]VNFSTGW-NH2) |  |  | EC50 [2]: 2230 nM
CC(C)C[C@H](NC(=O)[C@@H]1CCC(=O)N1)C(=O)N[C@H](C(=O)N[C@@H](Cc1ccccc1)C(=O)N[C@H](C(=O)N[C@@H](CO)C(=O)N[C@@H](CO)C(=O)N[C@@H](Cc1c[nH]c2ccccc12)C(N)=O)[C@@H](C)O)[C@@H](C)O [Hipes-AKH-I] ([pGlu]LTFTSSW-NH2) |  |  | Fold-reduction in activity relative to Aedae-AKH [2]: 7.6 fold; EC50 [2]: 16.5 nM
CC(C)[C@H](NC(=O)[C@@H]1CCC(=O)N1)C(=O)N[C@@H](CC(N)=O)C(=O)N[C@@H](Cc1ccccc1)C(=O)N[C@H](C(=O)N1CCC[C@H]1C(=O)N[C@@H](CO)C(=O)N[C@@H](Cc1c[nH]c2ccccc12)C(N)=O)[C@@H](C)O [Libau-AKH] ([pGlu]VNFTPSW-NH2) |  |  | Fold-reduction in activity relative to Aedae-AKH [2]: 548 fold and 547.9 fold; EC50 [2]: 1180 nM; Improved AKHR-IA activation over that achieved by Grybi-AKH ([2]; relative to Grybi-AKH): ~2 fold
CC(C)C[C@H](NC(=O)[C@@H]1CCC(=O)N1)C(=O)N[C@H](C(=O)N[C@@H](Cc1ccccc1)C(=O)N[C@H](C(=O)N1CCC[C@H]1C(=O)N[C@@H](CC(N)=O)C(=O)N[C@@H](Cc1c[nH]c2ccccc12)C(N)=O)[C@@H](C)O)[C@@H](C)O [Peram-CAH-II] ([pGlu]LTFTPNW-NH2) |  |  | Fold-reduction in activity relative to Aedae-AKH [2]: 1.0 fold; EC50 [2]: 2.23 nM
Ac-AVTFSRDWNA-NH2 [Aedae-ACP (A1b)] | 43.6 fold | 527 | 
H-AVTFSRDWNA-NH2 [Aedae-ACP (A1)] |  | 1580 | 
pQ-TFSRDWNAamide [Aedae-ACP (1,3-10), internally truncated ACP analog lacking valine in the second position] | >1,000 fold |  | 
pQLTFSSGWGNamide [Helze-AKH, naturally-occurring insect AKH decapeptide] | >1,000 fold |  | Activity on ACPR at the highest tested dose, in words [1]: low activity
pQLTFTPSWamide [Aedae-AKH, endogenous octapeptide adipokinetic hormone of Aedes aegypti] |  |  | Activity on ACPR at the highest tested dose, in words [1]: inactive
pQLTFTSSWGGamide [Lacol-AKH, naturally-occurring insect AKH decapeptide] | >1,000 fold |  | Activity on ACPR at the highest tested dose, in words [1]: low activity
pQVTASRDWNAamide [Aedae-ACP (A4), synthetic ACP analog, alanine at position 4] | >1,000 fold |  | 
pQVTFSRDANAamide [Aedae-ACP (A8), synthetic ACP analog, alanine at position 8] | >1,000 fold |  | 
pQVTFSRDWNA-OH [Aedae-ACP (-OH), non-amidated (free acid) ACP analog] | >1,000 fold |  | 
